The source of these data is patent publication US8729093B2 (priority 2006, dated 2014).

Read-outs that look alike come from different tables or passages of the source. Some results are limits rather than exact numbers.

One assay deals with rice "Bakanae" disease. In words: whole plant or invertebrate. Type of assay: in vivo. The conditions noted are these: Oryza sativa, 504 h, read-out: prevention value.
The test system of assay [1] is rice blast. Type of assay: in vivo, Pyricularia oryzae.
Assay [2] concerns rice blast. Put plainly: whole plant or invertebrate. The conditions noted are these: Pyricularia oryzae, 504 h, read-out: prevention value. The assay is classed as in vivo.
Where [3] appears, read: rice (Sachikaze), nursery box soil treated at sowing time or transplanting time, 400 g a.i./10 a, observed 7 days after inoculation, untreated plants = 3.

As to `CC1(C)N=C(c2cnc3ccccc3c2)c2ccccc2C1(C)C` [Compound No. 1-865, 3-(3,3,4,4-tetramethyl-3,4-dihydroisoquinolin-1-yl)quinoline], the pest or weed control at 0.02 % a.i. with rice "Bakanae" disease is not below 80%.
Take `CCCC1(C)Cc2c(F)cccc2C(c2cnc3ccccc3c2)=N1` (stereo not shown) [Compound No. 1-185, 3-(5-fluoro-3-methyl-3-propyl-3,4-dihydroisoquinolin-1-yl)quinoline]: the disease severity in the assay on rice blast [1] (setting [3]) amounted to 0.
`CC1(C)c2c(F)cccc2C(c2cnc3ccccc3c2)=[N+]([O-])C1(C)C` [Compound No. 3-100, 3-(5-fluoro-3,3,4,4-tetramethyl-2-oxido-3,4-dihydroisoquinolin-1-yl)quinoline] yielded a disease severity in the assay on rice blast [1] (setting [3]) of 0. The pest or weed control at 0.02 % a.i. in the assay on rice blast [2] and with rice "Bakanae" disease was not below 80% in each case.
`CC1(c2ccc(F)cc2)Cc2ccccc2C(c2cnc3ccccc3c2)=N1` (stereo not shown) [Compound No. 1-502, 3-[3-methyl-3-(4-fluorophenyl)-3,4-dihydroisoquinolin-1-yl]quinoline]: the disease severity with rice blast [1] (setting [3]) turned out to be 0.
The compound `CC1(C)N=C(c2cnc3ccccc3c2)c2cccc(F)c2C1(C)C` [Compound No. 1-866, 3-(5-fluoro-3,3,4,4-tetramethyl-3,4-dihydroisoquinolin-1-yl)quinoline] came in with a disease severity in the assay on rice blast [1] (setting [3]) of 0. The pest or weed control at 0.02 % a.i. in the assay with rice blast [2] and with rice "Bakanae" disease was not below 80% in each case.
With `CC1(CC(F)(F)F)Cc2ccccc2C(c2cnc3ccccc3c2)=N1` (stereo not shown) [Compound No. 1-425, 3-[3-methyl-3-(2,2,2-trifluoroethyl)-3,4-dihydroisoquinolin-1-yl]quinoline], the disease severity in the assay on rice blast [1] (setting [3]) came to 0.
The same measure, in the same setting: next, `CC1(C)Cc2c(ccc(F)c2F)C(c2cnc3ccccc3c2)=N1` [Compound No. 1-117, 3-(5,6-difluoro-3,3-dimethyl-3,4-dihydroisoquinolin-1-yl)quinoline]: 0.
On to `CC1(C)N=C(c2cnc3c(F)cccc3c2)c2cccc(F)c2C1(C)C` [Compound No. 1-918, 8-fluoro-3-(5-fluoro-3,3,4,4-tetramethyl-3,4-dihydroisoquinolin-1-yl)quinoline], for which the disease severity in the assay on rice blast [1] (setting [3]) was found to be 0.
Compound `Cc1cccc2cc(C3=NC(C)(C)C(C)(C)c4c(F)cccc43)cnc12` [Compound No. 1-919, 3-(5-fluoro-3,3,4,4-tetramethyl-3,4-dihydroisoquinolin-1-yl)-8-methylquinoline] gave a disease severity in the assay on rice blast [1] (setting [3]) of 0.
`CC1(C)c2cc(F)ccc2C(c2cnc3ccccc3c2)=[N+]([O-])C1(C)C` [Compound No. 3-109, 3-(6-fluoro-3,3,4,4-tetramethyl-2-oxido-3,4-dihydroisoquinolin-1-yl)quinoline]: the disease severity in the assay on rice blast [1] (setting [3]) stood at 0.
In the assay with rice blast [1] (in vivo), `CC1(C)c2ccccc2C2(c3cnc4ccccc4c3)ON2C1(C)C` (stereo not shown) [Compound No. 2-91, 3,3,4,4-tetramethyl-8b-quinolin-3-yl-4,8b-dihydro-3H-oxazireno[3,2-a]isoquino line] showed a disease severity of 0.
Consider `CC1(C(F)(F)F)Cc2ccccc2C(c2cnc3ccccc3c2)=N1` (stereo not shown) [Compound No. 1-387, 3-(3-methyl-3-trifluoromethyl-3,4-dihydroisoquinolin-1-yl)quinoline], for which the disease severity in the assay on rice blast [1] (setting [3]) was found to be 0.
For `CC1(C)N2OC2(c2cnc3ccccc3c2)c2ccccc2C1(F)F` (stereo not shown) [Compound No. 2-134, 4,4-difluoro-3,3-dimethyl-8b-quinolin-3-yl-4,8b-dihydro-3H-oxazireno[3,2-a]isoquinoline], the pest or weed control at 0.02 % a.i. with rice blast [2] was not below 80%.
The compound `CC1(C)N=C(c2cnc3ccccc3c2)c2ccccc2C1(F)F` [Compound No. 1-929, 3-(4,4-difluoro-3,3-dimethyl-3,4-dihydroisoquinolin-1-yl)quinoline] gave a disease severity with rice blast [1] (setting [3]) of 0. Moreover, the pest or weed control at 0.02 % a.i. in the assay with rice blast [2] and in the assay with rice "Bakanae" disease was not below 80% throughout.
For `CC1(C)c2c(F)cccc2C2(c3cnc4ccccc4c3)ON2C1(C)C` (stereo not shown) [Compound No. 2-100, 5-fluoro-3,3,4,4-tetramethyl-8b-quinolin-3-yl-4,8b-dihydro-3H-oxazireno[3,2-a]isoquinoline], the pest or weed control at 0.02 % a.i. in the assay with rice blast [2] and with rice "Bakanae" disease was not below 80% throughout.
On to `CC1(C)N2OC2(c2cnc3ccccc3c2)c2cccc(F)c2C1(F)F` (stereo not shown) [Compound No. 2-135, 4,4,5-trifluoro-3,3-dimethyl-8b-quinolin-3-yl-4,8b-dihydro-3H-oxazireno[3,2-a]isoquinoline], for which, in the assay with rice blast [2], the pest or weed control at 0.02 % a.i. is not below 80%.
On to `CC1(C)[N+]([O-])=C(c2cnc3ccccc3c2)c2ccccc2C1(F)F` [Compound No. 3-134, 3-(4,4-difluoro-3,3-dimethyl-2-oxido-3,4-dihydroisoquinolin-1-yl)quinoline], for which the disease severity in the assay on rice blast [1] (setting [3]) came out at 0. The pest or weed control at 0.02 % a.i. with rice blast [2] and in the assay on rice "Bakanae" disease was not below 80% each time.
In the assay on rice blast [1] (setting [3]), `CC1(C)N=C(c2cnc3ccccc3c2)c2cccc(F)c2C1(F)F` [Compound No. 1-930, 3-(4,4,5-trifluoro-3,3-dimethyl-3,4-dihydroisoquinolin-1-yl)quinoline] returned a disease severity of 0. Also, the pest or weed control at 0.02 % a.i. in the assay with rice blast [2] and in the assay with rice "Bakanae" disease was not below 80% each time.
As for `CC1(C)Cc2c(F)cccc2C(c2cnc3ccccc3c2)=N1` [Compound No. 1-32, 3-(5-fluoro-3,3-dimethyl-3,4-dihydroisoquinolin-1-yl)quinoline], the disease severity with rice blast [1] (setting [3]) turned out to be 0. The pest or weed control at 0.02 % a.i. in the assay on rice blast [2] and with rice "Bakanae" disease was not below 80% throughout.
Turning to `CC1(C)[N+]([O-])=C(c2cnc3ccccc3c2)c2cccc(F)c2C1(F)F` [Compound No. 3-135, 3-(4,4,5-trifluoro-3,3-dimethyl-2-oxido-3,4-dihydroisoquinolin-1-yl)quinoline], the disease severity in the assay with rice blast [1] (setting [3]) is 0. The pest or weed control at 0.02 % a.i. in the assay on rice blast [2] and in the assay on rice "Bakanae" disease was not below 80% in each case.
Regarding `CC1(C)Cc2c(Br)cccc2C(c2cnc3ccccc3c2)=N1` [Compound No. 1-56, 3-(5-bromo-3,3-dimethyl-3,4-dihydroisoquinolin-1-yl)quinoline], the disease severity in the assay with rice blast [1] (setting [3]) is given as 0.
On the same count and under the same terms, for `CC1(C)Cc2c(Cl)cccc2C(c2cnc3ccccc3c2)=N1` [Compound No. 1-44, 3-(5-chloro-3,3-dimethyl-3,4-dihydroisoquinolin-1-yl)quinoline] the value was 0.
